This note sets out measurements from patent publication US11945790B2 (ImmunoMolecular Therapeutics, Inc., priority 2020, dated 2024).

Structures are written as SMILES.

Chain of HLA-DQ2 (P01920 33-261 limits assumed, other chains not shown): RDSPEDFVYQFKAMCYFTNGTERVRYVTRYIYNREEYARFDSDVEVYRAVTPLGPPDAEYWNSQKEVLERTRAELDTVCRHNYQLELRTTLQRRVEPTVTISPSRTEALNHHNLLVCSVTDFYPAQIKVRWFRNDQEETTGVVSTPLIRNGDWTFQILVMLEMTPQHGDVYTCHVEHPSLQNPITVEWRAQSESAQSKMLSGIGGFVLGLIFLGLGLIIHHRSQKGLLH

The first test has as its target HLA-DQ2 (Homo sapiens, UniProt P01909+P01920). Kind of test: Inhibition of IL-2 secretion by TCR transductants stimulated by α-gliadin peptides presented by HLA-DQ2 expressing K562 cells (ELISA). It counts as cell-based. To be noted: inhibition of IL-2 secretion at 200 uM; tested as trans racemate unless otherwise noted; lines naming several Examples = stereoisomer mixture of those Examples. As to the method: Three commercially available analogues of the DQ2 binding molecules of the invention were tested for their ability to inhibit stimulation of T cell receptor (TCR) transductants in the presence of HLA-DQ2 expressing cells presenting known α-gliadin epitopes.
Using a previously published in vitro assay (Ostrov D, et al. Methyldopa blocks MHC class II binding to disease specific antigens in autoimmune diabetes. J Clin Invest. 2018:128 (5)) the ability of these DQ2 binding analogues to inhibit interleukin-2 (IL-2) secretion by TCR transductants stimulated by α-gliadin peptides presented by HLA-DQ2 was determined. Individual TCR transductants (recognizing a I-gliadin or a II-gliadin) were cultured with a gliadin peptide plus the small molecule analogues in the presence of HLA-DQ2 expressing K562 cells serving as antigen presenting cells. TCR transductants cultured with no gliadin peptide served as the negative control, and incubation with an anti-CD3 antibody (eBioscience; clone 2C11) served as a positive control for the TCR transductant. Secreted IL-2 in the culture supernatant was measured using a highly sensitive enzyme-linked immunosorbent assay (ELISA). […] Assays for effects on cell viability and for specificity, assayed in the absence of gliadin peptide or in the presence of a stimulating anti-CD3 antibody, were performed. Unless otherwise noted, the stereochemistry shown below represents the relative configuration. Further, unless otherwise noted, compounds were tested as the trans racemate.
Take `O=C(COC1CC1)N1CCN(C(=O)[C@@H]2C[C@H]2c2ccccc2)CC1` (racemic) [Example 38, 2-Cyclopropoxy-1-(4-(trans-2-phenylcyclopropanecarbonyl)piperazin-1-yl) ethanone]: the “% Inh at 200 uM” value is recorded as “C (C=25-49%)”.

For the compound `O=C(COC1CCC1)N1CCN(C(=O)[C@@H]2C[C@H]2c2ccccc2)CC1` (racemic) [Example 39, 2-Cyclobutoxy-1-(4-(trans-2-phenylcyclopropanecarbonyl)piperazin-1-yl) ethanone], the “% Inh at 200 uM” value was “B (B=50-74%)”.

For `COCC(=O)N1CCN(C(=O)[C@@H]2C[C@H]2c2ccccc2)CC1` (relative stereo) [Example 42, [2-Methoxy-1-(4-(trans-2-phenylcyclopropane-1-carbonyl)piperazin-1-yl)ethan-1-one]], the “% Inh at 200 uM” value is “C (C=25-49%)”.

Take `CSCC(=O)N1CCN(C(=O)[C@@H]2C[C@H]2c2ccccc2)CC1` (relative stereo) [Example 43, [2-(Methylthio)-1-(4-(trans-2-phenylcyclopropane-1-carbonyl)piperazin-1-yl)ethan-1-one]]: the “% Inh at 200 uM” value was “C (C=25-49%)”.

For `CC(C)OCC(=O)N1CCN(C(=O)[C@@H]2C[C@H]2c2ccccc2)CC1` (relative stereo) [Example 44, 2-Isopropoxy-1-(4-(trans-2-phenylcyclopropanecarbonyl)piperazin-1-yl) ethanone], the “% Inh at 200 uM” value was “C (C=25-49%)”.

Turning to `CCCCOCC(=O)N1CCN(C(=O)[C@@H]2C[C@H]2c2ccccc2)CC1` (relative stereo) [Example 46, 2-Butoxy-1-(4-(trans-2-phenylcyclopropanecarbonyl)piperazin-1-yl) ethanone], the “% Inh at 200 uM” value is “B (B=50-74%)”.

For `CCCCSCC(=O)N1CCN(C(=O)[C@@H]2C[C@H]2c2ccccc2)CC1` (relative stereo) [Example 47, 2-(Butylthio)-1-(4-(trans-2-phenylcyclopropane-carbonyl)piperazin-1-yl)ethanone], the “% Inh at 200 uM” value is “B (B=50-74%)”.

Turning to `O=C(COc1ccccc1)N1CCN(C(=O)[C@@H]2C[C@H]2c2ccccc2)CC1` (relative stereo) [Example 48, 2-Phenoxy-1-(4-(trans-2-phenylcyclopropanecarbonyl)piperazin-1-yl) ethanone], the “% Inh at 200 uM” value is recorded as “B (B=50-74%)”.

Take `O=C(CSc1ccccc1)N1CCN(C(=O)[C@@H]2C[C@H]2c2ccccc2)CC1` (relative stereo) [Example 49, 1-(4-(Trans-2-phenylcyclopropane-1-carbonyl)piperazin-1-yl)-2-(phenylthio) ethan-1-one]: the “% Inh at 200 uM” value is listed as “C (C=25-49%)”.

As for `Cc1ccccc1SCC(=O)N1CCN(C(=O)[C@@H]2C[C@H]2c2ccccc2)CC1` (relative stereo) [Example 50, 1-(4-(Trans-2-phenylcyclopropanecarbonyl)piperazin-1-yl)-2-(o-tolylthio)ethanone], the “% Inh at 200 uM” value is given as “C (C=25-49%)”.

As for `O=C(COC1CCCCCC1)N1CCN(C(=O)[C@@H]2C[C@H]2c2ccccc2)CC1` (relative stereo) [Example 52, 2-(Cycloheptyloxy)-1-(4-(trans-2-phenylcyclopropane-carbonyl)piperazin-1-yl)ethanone], the “% Inh at 200 uM” value was “A (A=≥75%)”.

Take `CC(C)c1ccc(SCC(=O)N2CCN(C(=O)[C@@H]3C[C@H]3c3ccccc3)CC2)cc1` (relative stereo) [Example 54, 2-((4-Isopropylphenyl)thio)-1-(4-(trans-2-phenylcyclopropane-1-carbonyl)piperazin-1-yl) ethan-1-one]: the “% Inh at 200 uM” value is “B (B=50-74%)”.

For `Cc1ccc(C)c(SCC(=O)N2CCN(C(=O)[C@@H]3C[C@H]3c3ccccc3)CC2)c1` (relative stereo) [Example 55, 2-((2,5-Dimethylphenyl)thio)-1-(4-(trans-2-phenylcyclo-propanecarbonyl)piperazin-1-yl)-ethanone], the “% Inh at 200 uM” value is listed as “B (B=50-74%)”.

As for `Cc1ccc(SCC(=O)N2CCN(C(=O)[C@@H]3C[C@H]3c3ccccc3)CC2)cc1C` (relative stereo) [Example 56, 2-((3,4-Dimethylphenyl)thio)-1-(4-(trans-2-phenylcyclopropanecarbonyl)piperazin-1-yl) ethanone], the “% Inh at 200 uM” value is given as “B (B=50-74%)”.

Take `O=C(CSc1ccc(Cl)cc1)N1CCN(C(=O)[C@@H]2C[C@H]2c2ccccc2)CC1` (relative stereo) [Example 57, 2-((4-Chlorophenyl)thio)-1-(4-(trans-2-phenylcyclopropane-carbonyl)piperazin-1-yl) ethanone]: the “% Inh at 200 uM” value is reported as “B (B=50-74%)”.

For `O=C(CSc1ccccc1F)N1CCN(C(=O)[C@@H]2C[C@H]2c2ccccc2)CC1` (relative stereo) [Example 58, 2-((2-Fluorophenyl)thio)-1-(4-(trans-2-phenylcyclopropane-1-carbonyl)piperazin-1-yl) ethan-1-one], the “% Inh at 200 uM” value is given as “A (A=≥75%)”.

On to `O=C(CSc1ccc(F)cc1Cl)N1CCN(C(=O)[C@@H]2C[C@H]2c2ccccc2)CC1` (relative stereo) [Example 59, 2-((2-Chloro-4-fluorophenyl)thio)-1-(4-(trans-2-phenylcyclo-propanecarbonyl)piperazin-1-yl)ethanone], for which the “% Inh at 200 uM” value was “C (C=25-49%)”.

Take `O=C(CSc1ccccc1Cl)N1CCN(C(=O)[C@@H]2C[C@H]2c2ccccc2)CC1` (relative stereo) [Example 60, 2-((2-Chlorophenyl)thio)-1-(4-(trans-2-phenylcyclopropane-1-carbonyl)piperazin-1-yl) ethan-1-one]: the “% Inh at 200 uM” value is reported as “B (B=50-74%)”.

As to `Cc1cc(F)ccc1SCC(=O)N1CCN(C(=O)[C@@H]2C[C@H]2c2ccccc2)CC1` (relative stereo) [Example 61, 2-((4-Fluoro-2-methylphenyl)thio)-1-(4-(trans-2-phenylcyclopropanecarbonyl)-piperazin-1-yl)ethanone], the “% Inh at 200 uM” value is “B (B=50-74%)”.

As to `O=C(CSC1CCCCCC1)N1CCN(C(=O)[C@@H]2C[C@H]2c2ccccc2)CC1` (relative stereo) [Example 69, 2-(Cycloheptylthio)-1-(4-(trans-2-phenylcyclopropane-1-carbonyl)piperazin-1-yl) ethan-1-one], the “% Inh at 200 uM” value is “A (A=≥75%)”.

Take `Cc1ccc(SCC(=O)N2CCN(C(=O)[C@@H]3C[C@H]3c3ccccc3)CC2)c(F)c1` (relative stereo) [Example 71, 2-((2-Fluoro-4-methylphenyl)thio)-1-(4-(trans-2-phenylcyclopropane-1-carbonyl)piperazin-1-yl) ethan-1-one]: the “% Inh at 200 uM” value was “A (A=≥75%)”.

For `Cc1cc(Cl)ccc1SCC(=O)N1CCN(C(=O)[C@@H]2C[C@H]2c2ccccc2)CC1` (relative stereo) [Example 72, 2-((4-Chloro-2-methylphenyl)thio)-1-(4-(trans-2-phenylcyclo-propanecarbonyl)piperazin-1-yl) ethanone], the “% Inh at 200 uM” value is reported as “A (A=≥75%)”.

For the compound `Cc1ccc(SCC(=O)N2CCN(C(=O)[C@@H]3C[C@H]3c3ccccc3)CC2)c(Cl)c1` (relative stereo) [Example 84, 2-((2-Chloro-4-methylphenyl)thio)-1-(4-(trans-2-phenylcyclo-propanecarbonyl)piperazin-1-yl) ethanone], the “% Inh at 200 uM” value is “A (A=≥75%)”.

Take `NC(=O)c1ccc(SCC(=O)N2CCN(C(=O)[C@@H]3C[C@H]3c3ccccc3)CC2)cc1` (relative stereo) [Example 85, 4-((2-Oxo-2-(4-(trans-2-phenylcyclopropanecarbonyl)piperazin-1-yl)ethyl)thio)benzamide]: the “% Inh at 200 uM” value was “C (C=25-49%)”.

With `O=C(CSc1ccc(Cl)cc1F)N1CCN(C(=O)[C@@H]2C[C@H]2c2ccccc2)CC1` (relative stereo) [Example 103, 2-((4-Chloro-2-fluorophenyl)thio)-1-(4-(trans-2-phenylcyclo-propane-1-carbonyl)piperazin-1-yl) ethan-1-one], the “% Inh at 200 uM” value was “A (A=≥75%)”.

With `COC(=O)c1ccc(OCC(=O)N2CCN(C(=O)[C@@H]3C[C@H]3c3ccccc3)CC2)cc1` (relative stereo) [Example 106, Methyl 4-(2-oxo-2-(4-(trans-2-phenylcyclopropanecarbonyl)piperazin-1-yl)ethoxy) benzoate], the “% Inh at 200 uM” value is listed as “A (A=≥75%)”.

Regarding `COC(=O)c1cccc(OCC(=O)N2CCN(C(=O)[C@@H]3C[C@H]3c3ccccc3)CC2)c1` (relative stereo) [Example 109], the “% Inh at 200 uM” value was “A (A=≥75%)”.

Consider `O=C(CSc1ccc(F)cc1)N1CCN(C(=O)C2CC2c2ccc3c(c2)OCO3)CC1` (stereo not shown) [Example 5], for which the “% Inh at 200 uM” value was “B (B=50-74%)”.

As for `O=C(COc1ccc(F)cc1)N1CCN(C(=O)C2CC2c2ccc3c(c2)OCO3)CC1` (stereo not shown) [Example 6], the “% Inh at 200 uM” value is reported as “A (A=≥75%)”.

Turning to `O=C(c1ccco1)N1CCN(C(=O)C2CC2c2ccc3c(c2)OCO3)CC1` (stereo not shown) [Example 7], the “% Inh at 200 uM” value is recorded as “B (B=50-74%)”.

`Cc1cc(C(=O)N2CCN(C(=O)C3CC3c3ccc4c(c3)OCO4)CC2)c(C)o1` (stereo not shown) [Example 8]: the “% Inh at 200 uM” value is “A (A=≥75%)”.

As for `Cc1nnsc1C(=O)N1CCN(C(=O)C2CC2c2ccc3c(c2)OCO3)CC1` (stereo not shown) [Example 9], the “% Inh at 200 uM” value is on record as “C (C=25-49%)”.

Still in this test, the particulars now being: inhibition of IL-2 secretion, dose-response; tested as trans racemate unless otherwise noted; lines naming several Examples = stereoisomer mixture of those Examples.
For the compound `COC(=O)c1ccc(OCC(=O)N2CCN(C(=O)[C@@H]3C[C@H]3c3ccccc3)CC2)cc1` (relative stereo) [Example 106, Methyl 4-(2-oxo-2-(4-(trans-2-phenylcyclopropanecarbonyl)piperazin-1-yl)ethoxy) benzoate], the EC50 lay within 100 to 200 µM.

Regarding `COC(=O)c1cccc(OCC(=O)N2CCN(C(=O)[C@@H]3C[C@H]3c3ccccc3)CC2)c1` (relative stereo) [Example 109], the concentration giving a half-maximal response (EC50) fell in the range of 50 to 100 µM.
